2 compounds from US4855287A, “Aminoglycoside compounds, processes for production thereof, and pharamaceutical composition containing the same” (Kowa Company, Ltd., priority 1985, dated 1989) can be followed below.

The nature of data set [1]: Test for concentrations in blood, intrarectal administration. The note with it: rat, in vivo. More on the design: species or system Male rats. The procedure:
Male rats (body weight 250-350 g: n=3) which had been caused to fast for 18 hours prior to administration were anesthetized with pentobarbirtal. After the abdomen was incised, the upper part of the duodenum was tied. Each of the test compounds was dissolved in water so that its concentration became 12.5 mg/ml as its starting antibiotic (the compound of formula II), and the solution was intraduodenally administered to the rats in a dose of 2 ml/kg. After the administration, blood was drawn periodically from the tail vein, and the concentration of the starting antibiotic in the blood was measured by antimicrobial assay and liquid chromatography.
Male rats (body weight 250-350 g: n=3) which had been caused to fast for 18 hours prior to administration were anesthetized with pentobarbirtal. After the abdomen was incised, the lower part of the rectum was tied. Each of the test compounds was administered intrarectally in the same dose in the same manner as in (1) above, and the concentration of the starting antibiotic in the blood was measured in the same way as in (1) above.

Data set [2] deals with Bacillus subtilis ATCC 6633. Briefly: Test for antibacterial activity (paper disk, diameter of inhibitory zone, before and after incubation in rat liver/kidney homogenate). It is filed as cell-based. The note with it: 200 mcq/ml, 8 mm paper disk. The procedure:
Each of the test compounds shown in the following table was dissolved in a concentration of 200 mcq/ml in a homogenate of a 10% physiological saline solution of an organ of a rat, and incubated at 37° C. for 2 hours. An enzymatic reaction was stopped by adding an equal amount of ethanol. The antibacterial activity of the test compound before incubation was compared with that after incubation. The incubation was carried out in an equal amount mixture of a liver homogenate and a kidney homogenate. The antibacterial activity was measured by a paper disk having a diameter of 8 mm using Bacillus subtilis ATCC 6633 as a test organism, and shown by the diameter of the resulting inhibitory zone.

Setting [3] is: ATCC6633, after incubation at 37° C. for 2 hours in rat liver homogenate and kidney homogenate, read-out: Diameter of the inhibitory zone, after incubation.
Where [4] appears, read: ATCC6633, before incubation, read-out: Diameter of the inhibitory zone, before incubation.

Read-outs that look alike come from different tables or passages of the source.

Take `CC(N)C1CCC(N)C(OC2C(N)CC(O)C(N(C)C(=O)CNC(=O)[C@@H](N)CCC(=O)OCCCOC(=O)CC[C@@H](C)[C@H]3CC[C@H]4[C@@H]5CC[C@@H]6C[C@H](O)CC[C@]6(C)[C@H]5C[C@H](O)[C@]34C)C2O)O1` (stereo partly drawn) [Example 20, 2"-N-[γ-O-(3-deoxycholyloxypropyl)-L-glutamyl]-5-de-O-methyl-KA-6606I]: in data set [1], the “Maximum concentration in blood Cmax” value worked out at 7.76 µg/mL and the Tmax (in general, the time from dosing to the highest level) was 30 min. The zone of inhibition at 200 µg/mL in data set [2] (setting [3]) came to 21.8 mm. In addition, the zone of inhibition at 200 µg/mL in data set [2] (setting [4]) came out at 14.1 mm.

On to `CC(=O)OC1CCC2(C)C(CCC3C2CC(OC(C)=O)C2(C)C(C(C)CCC(=O)OCCCCOC(=O)CCC(N)C(=O)NCC(=O)N(C)C4C(O)CC(N)C(OC5OC(C(C)N)CCC5N)C4O)CCC32)C1` [Example 27, 2"-N-{γ-O-[4-(3,12-di-O-acetyldeoxycholyloxy)butyl]-L-glutamyl}-5-de-O-methyl-KA-6606I], for which, in data set [1], the “Maximum concentration in blood Cmax” value worked out at 5.30 µg/mL and the Tmax amounted to 30 min. The zone of inhibition at 200 µg/mL in data set [2] (setting [3]) worked out at 23.2 mm. For the same compound, in data set [2] (setting [4]), the zone of inhibition at 200 µg/mL stood at 13.5 mm.
